According to patent US20250221989A1, “PHARMACEUTICAL COMPOSITION, USE THEREOF, AND METHOD FOR TREATING CANCER” (Genfleet Therapeutics (Shanghai) Inc., priority 2022, published 2025):
Marks after values point to notes of the source that are not given here.

What was measured:
[1] = system: mouse colon cancer CT26 KRAS G12C KI cell subcutaneous graft tumor model; assay: In vivo anti-tumor evaluation in mouse CT26 KRASG12C KI subcutaneous graft tumor model
Protocol: The animals and the main evaluation indexes were the same as those of Example 8.
Preparation: the compound of the formula (II) was prepared in a vehicle of 5% DMSO+10% Solutol HS 15+85% (6% HP—β-CD); mPD1 was prepared in PBS.
On day 12 after cell inoculation (DO), the grouping and treatment were started after the mean tumor volume reached 69 mm^3. 32 tumor-bearing mice were selected, randomized into 4 groups of 8 mice each as per the tumor volume and the body weight, and treated according to the administration regimen shown in Table 3. The administration volume in mice was 10 mL/kg. The mice were weighed on an electronic balance twice weekly and the tumor volume was measured with a vernier caliper twice weekly.
The main evaluation indexes were tumor volume, TGI, TWI, and RCBW.

[2] = system: NCI-H2122 human non-small cell lung cancer model; assay: In vivo anti-tumor evaluation in NCI-H2122 human non-small cell lung cancer model; design: species or system BALB/c nude mice
Protocol: During the study, the health of the animals was observed daily. If there was a 10% weight loss in the animals, the administration dose was halved; if there was a 15% weight loss, the […] until a normal body weight was restored; or if the tumor volume in the animals exceeded 2,000 mm^3, the mouse was euthanized immediately. If the health condition met the following criteria, euthanasia was performed by the veterinarian:
BALB/c nude mice, aged 6-8 weeks, female, purchased from Beijing Vital River Laboratory Animal Technology Co., Ltd., Certificate No. 20170011008676, and housed in an SPF-grade environment.
NCI-H2122 cells were cultured in an RPMI 1640 medium containing 10% of FBS and 1% of penicillin-streptomycin in an incubator at 37° C. and 5% CO2. […] When the cells were in the logarithmic growth phase and the confluence reached […], the cells were collected and counted. The cells were collected and adjusted to a final concentration of 2.0×10^6 cells/mL. Mice were grafted subcutaneously at the right dorsal region in a volume of 0.15 mL/3×10^5 cells/mouse. When the tumors grew to an average size of about 242 mm^3 (D5 after grafting), 32 tumor-bearing mice were selected, randomized into 4 groups of 8 mice each as per the tumor volume and the body weight, and treated according to the administration regimen shown in Table 1. The dose in mice was 10 mL/kg. The mice were weighed on an electronic balance twice weekly and the tumor volume was measured with a vernier caliper twice weekly. The study was ended on D17 after grafting, and the mice were euthanized after tumor volume measurement.
Tumor volume (TV)=(L×W^2)/2, where L denotes the long diameter of the tumor, and W is the short diameter of the tumor.
TWI=(1−TWtreatment/Dx/TWcontrol/Dx)×100%, where TWcontrol denotes the average tumor weight (g) of the control group, and TWtreatment denotes the average tumor weight (g) of the treatment group.
RCBW (%)=(BWi−BW0)/BW0×100%, where BWi is the body weight of a mouse on a specific day and BW0 is the body weight of the mouse at the baseline.
All experimental data analysis and graphing were performed using GraphPad Prism software (GraphPad Software). Tumor volumes and the body weights of the animals in all groups were statistically compared using two-way ANOVA, Dunnett's multiple comparisons test. Tumor weights of the groups at the endpoint were statistically compared using one-way ANOVA, Dunnett's multiple comparisons test. P<0.05 denotes a statistically significant difference. The tumor volume and weight and body weight of animals are expressed by mean±standard error (SEM).

[3] = system: Human non-small cell lung cancer cells SW1573; assay: Cell survival rate of SW1573 cells under drug combination, Cell Titer-Glo; format: cell-based; conditions: 120 h
Protocol: (§1) The cell survival rate (%) after the drug combinations was calculated by the formula: cell survival rate=(1−(RLU of DMSO control−RLU of treatment)/(RLU of DMSO control−RLU of blank control))×100%. The DMSO control was a vehicle control with no drugs, and the blank control was a medium control with no drugs and vehicles.
(§2) The value corresponding to the coordinates is the cell survival rate of the combination groups with corresponding concentrations of the two drugs.
(§3) The effect of the drug combinations on the tumor cells was evaluated by statistical methods. The statistical software used was R systems, and the statistical models were Bliss, HSA, Loewe, and ZIP. A synergic value>5 indicates a synergic effect, a synergic value>10 indicates a significant synergic effect, a synergic value<−5 indicates an antagonistic effect, and a synergic value<−10 indicates a significant antagonistic effect. The final efficacy of the drug combinations was further judged by the synergic value.
(§4) After 120 h, the cell viability was measured by Cell Titer-Glo method. The Cell Titer-Glo reagent was added at 30 μL/well. The plate was shaken for 2 min and left to stand for 10 min. The RLU value was read on the Envision system.

[4] = system: Human rectal adenocarcinoma cells SW837; assay: Cell survival rate of SW837 cells under drug combination, Cell Titer-Glo; format: cell-based; conditions: 120 h
Protocol: as §1, §2, §3
as §4, with “Human rectal adenocarcinoma cells SW837 were plated into a 384-well plate at 800 cells/well. […] After” for “After”
as §4, with “Human rectal adenocarcinoma cells SW837 were plated into a 384-well plate at 800 cells/well. […] After” for “After”

[5] = system: Human non-small cell lung cancer cells LU99; assay: Cell survival rate of LU99 cells under drug combination, Cell Titer-Glo; format: cell-based; conditions: 120 h
Protocol: as §1, §2, §3
as §4, with “Human non-small cell lung cancer cells LU99 were plated into a 384-well plate at 600 cells/well. […] After” for “After”
as §4, with “Human non-small cell lung cancer cells LU99 were plated into a 384-well plate at 600 cells/well. […] After” for “After”

[6] = system: Human rectal adenocarcinoma cells SW1463; assay: Cell survival rate of SW1463 cells under drug combination, Cell Titer-Glo; format: cell-based; conditions: 120 h
Protocol: as §1, §2, §3, §4

[7] = system: Human non-small cell lung cancer cells NCI-H2122; assay: Cell survival rate of NCI-H2122 cells under drug combination, Cell Titer-Glo; format: cell-based; conditions: 120 h
Protocol: as §1
The value corresponding to the coordinates is the cell survival rate of the combination groups with corresponding concentrations of the two drugs. For example, in FIG. 1, when the horizontal coordinate read is 0 nM and the vertical coordinate read is 10.03 nM, the value corresponding to the coordinates is 86.1.
as §3
Human non-small cell lung cancer cells NCI-H2122 were plated into a 384-well plate at 600 cells/well. […] After 120 h, the cell viability was measured by Cell Titer-Glo method. […] The RLU value was read on the Envision system.

[8] = Day 33, compound of formula (II) 3 mpk (D 0-9) & 1 mpk (D 10-20) p.o. q.d., mPD1 10 mpk i.p. biw
[9] = after 21 days treatment, compound of formula (II) 3 mpk (D 0-9) & 1 mpk (D 10-20) p.o. q.d., mPD1 10 mpk i.p. biw
[10] = Day 17, compound of formula (II) 10 mpk p.o. q.d., cetuximab 1 mpk i.p. biw
[11] = after 12 days treatment, mean ± SEM, compound of formula (II) 10 mpk p.o. q.d., cetuximab 1 mpk i.p. biw

For `C=CC(=O)N1CCN2c3c(c(=O)n(-c4c(C)ccnc4C(C)C)c4nc(-c5c(O)cccc5F)c(Cl)cc34)N(C)C(=O)[C@H]2C1` [Compound of formula (II), (4aR,8R)-3-acryloyl-11-chloro-10-(2-fluoro-6-hydroxyphenyl)-8-(2-isopropyl-4-methylpyridin-3-yl)-6-methyl-2,3,4,4a,6,8-hexahydro-1H-pyrazino[1′,2′: 4,5] pyrazino[2,3-c][1,8]naphthyridine-5,7-dione], the “tumor inhibitory effect (in words)” value ([1]; CT26 KRAS G12C KI subcutaneous graft tumor model) was “mild tumor inhibitory effects”, the TGI [1, 8] was 46.74% and the TWI [1, 8] was 35.38%. For the same compound, the “Body weight After grafting Day 33” value [1, 9] was 22.76 ± 0.37 g, the “Tumor volume Day 33 after grafting” value [1, 9] was 1065.38 ± 251.12 mm^3 and the “Tumor volume Day 33 after grafting” value ([1]; after 21 days treatment, compound of formula (II) 3 mpk (D 0-9) & 1 mpk (D 10-20) p.o. q.d., mPD1 10 mpk i.p. biw, listed as compound of formula (II)) was 1,065 mm^3. For the same compound, the “Tumor volume After grafting Day 12” value ([1]; baseline at grouping (D0), mean ± SEM, n=8) was 68.75 ± 6.65 mm^3, the “Body weight Day 12 after grafting” value ([1]; baseline, mean ± SEM) was 21.29 ± 0.29 g and the “Tumor weight After grafting Day 33” value ([1]; endpoint, compound of formula (II) 3 mpk (D 0-9) & 1 mpk (D 10-20) p.o. q.d., mPD1 10 mpk i.p. biw) was 1.84 ± 1.12 g. The T/C ([1]; mean tumor volume at end of study, compound of formula (II) 3 mpk (D 0-9) & 1 mpk (D 10-20) p.o. q.d., mPD1 10 mpk i.p. biw) was 54.92%, the TGI [2, 10] was 73.81% and the TWI [2, 10] was 49.37%. For the same compound, the “Body weight After grafting Day 17” value [2, 11] was 20.97 ± 0.38 g, the “Tumor volume After grafting Day17” value [2, 11] was 479.14 ± 58.84*** mm^3 and the “Body weight After grafting Day 5” value ([2]; baseline, mean ± SEM) was 21.16 ± 0.47 g. The “Tumor weight After grafting Day 17” value ([2]; endpoint, mean ± SEM, compound of formula (II) 10 mpk p.o. q.d., cetuximab 1 mpk i.p. biw) was 0.30 ± 0.04 g, the cell survival rate ([3]; SW1573, Example 6, 100 nM compound of formula (II) alone) was 86.4% and the cell survival rate ([4]; SW837, Example 2, 31.69 nM compound of formula (II) alone) was 60.2%. For the same compound, the cell survival rate ([4]; SW837, Example 4, 31.69 nM compound of formula (II) alone) was 56.2%, the cell survival rate ([5]; LU99, Example 1, 100 nM compound of formula (II) alone) was 83% and the cell survival rate ([5]; LU99, Example 3, 100 nM compound of formula (II) alone) was 83.8%. The cell survival rate ([5]; LU99, FIG. 1, coordinates 0 nM / 10.03 nM, stated as compound of formula (II) alone (BYL719 0 nM)) was 86.1%, the cell survival rate ([6]; SW1463, Example 5, 31.69 nM compound of formula (II) alone) was 43.2% and the cell survival rate ([7]; NCI-H2122, Example 7, 3.17 nM compound of formula (II) alone) was 60.7%.

For `Cc1nc(NC(=O)N2CCC[C@H]2C(N)=O)sc1-c1ccnc(C(C)(C)C(F)(F)F)c1` [BYL719, Alpelisib, reference compound], the cell survival rate ([4]; SW837, Example 2, 10000 nM BYL719 alone) was 62.9% and the cell survival rate ([5]; LU99, Example 1, 1000 nM BYL719 alone) was 62.6%.

Compound `CC1(C)CC[C@H](Nc2ncc(C(F)(F)F)c(-c3c[nH]c4c(P(C)(C)=O)c(C#N)ccc34)n2)CN1` [SY-5609, reference compound] has a cell survival rate ([7]; NCI-H2122, Example 7, 31.69 nM SY-5609 alone) of 57.5%.

`CS(=O)(=O)N1CCN(Cc2cc3nc(-c4cccc5[nH]ncc45)nc(N4CCOCC4)c3s2)CC1` [GDC0941, Pictilisib, reference compound] was tested, and the cell survival rate ([3]; SW1573, Example 6, 3164 nM GDC0941 alone) was 46%, the cell survival rate ([4]; SW837, Example 4, 1000 nM GDC0941 alone) was 67.6% and the cell survival rate ([5]; LU99, Example 3, 100 nM GDC0941 alone) was 85.4%. The cell survival rate ([6]; SW1463, Example 5, 1000 nM GDC0941 alone) was 64.6%.
